Where a name gives a salt, the structure may show the parent alone.
What was measured:
Details in all cases: 72 h
Calu-3 [1] = assay: cell viability relative to DMSO; higher = less toxic
Caco-2 [2] = assay: as above
HepG2 [3] = assay: as above
Vero E6 [4] = assay: as above
U2OS [5] = assay: as above
Calu-3 [6] = assay: relative viability EC50 (midpoint between 100% and the lowest measured viability); higher = less toxic
Caco-2 [7] = assay: as above
HepG2 [8] = assay: as above
Vero E6 [9] = assay: as above
U2OS [10] = assay: as above
Calu-3 [11] = assay: drug sensitivity score (DSS) for viability; higher = more toxic; extreme values may be limits of the assay
Caco-2 [12] = assay: as above
HepG2 [13] = assay: as above
Vero E6 [14] = assay: as above
U2OS [15] = assay: as above

SMILES | cell viability (Calu-3 [1]; 1 nM) | cell viability (Calu-3 [1]; 10 nM) | cell viability (Calu-3 [1]; 100 nM) | cell viability (Calu-3 [1]; 1000 nM) | cell viability (Calu-3 [1]; 10000 nM) | cell viability (Caco-2 [2]; 1 nM) | cell viability (Caco-2 [2]; 10 nM) | cell viability (Caco-2 [2]; 100 nM) | cell viability (Caco-2 [2]; 1000 nM) | cell viability (Caco-2 [2]; 10000 nM) | cell viability (HepG2 [3]; 1 nM) | cell viability (HepG2 [3]; 10 nM) | cell viability (HepG2 [3]; 100 nM) | cell viability (HepG2 [3]; 1000 nM) | cell viability (HepG2 [3]; 10000 nM) | cell viability (Vero E6 [4]; 1 nM) | cell viability (Vero E6 [4]; 10 nM) | cell viability (Vero E6 [4]; 100 nM) | cell viability (Vero E6 [4]; 1000 nM) | cell viability (Vero E6 [4]; 10000 nM) | cell viability (U2OS [5]; 1 nM) | cell viability (U2OS [5]; 10 nM) | cell viability (U2OS [5]; 100 nM) | cell viability (U2OS [5]; 1000 nM) | cell viability (U2OS [5]; 10000 nM) | relative viability EC50 (Calu-3 [6]) | relative viability EC50 (Caco-2 [7]) | relative viability EC50 (HepG2 [8]) | relative viability EC50 (Vero E6 [9]) | relative viability EC50 (U2OS [10]) | drug sensitivity score (Calu-3 [11]) | drug sensitivity score (Caco-2 [12]) | drug sensitivity score (HepG2 [13]) | drug sensitivity score (Vero E6 [14]) | drug sensitivity score (U2OS [15])
O=C(O)c1ccc(/C=C2\SC(=S)N(c3cccc(C(F)(F)F)c3)C2=O)cc1 [CFTRinh-172] | 102% | 99.9% | 97.8% | 106% | 116% | 104% | 100% | 86.7% | 99.4% | 99.9% | 111% | 104% | 96.2% | 94.7% | 106% | 96.3% | 96.3% | 96.4% | 93.9% | 107% | 95.2% | 101% | 94.2% | 104% | 99.4% | > 10 µM | > 10 µM | > 10 µM | > 10 µM | > 10 µM | 0 | 0 | 0 | 0 | 0
NS(=O)(=O)NCCNc1nonc1/C(=N/O)Nc1ccc(F)c(Br)c1 | 100% | 96.2% | 93.7% | 95% | 95.4% | 89.9% | 100% | 98% | 102% | 96.4% | 100% | 96% | 103% | 94.8% | 102% | 100% | 98.9% | 98.2% | 94.5% | 107% | 93.6% | 102% | 96.2% | 102% | 95% | > 10 µM | > 10 µM | > 10 µM | > 10 µM | > 10 µM | 0 | 0 | 0 | 0 | 0
CCCCc1nc(Cl)c(CO)n1Cc1ccc(-c2ccccc2-c2nnn[nH]2)cc1 [losartan] | 103% | 84.4% | 96.2% | 97.5% | 94.6% | 94.1% | 102% | 93.2% | 94.7% | 95.5% | 110% | 116% | 104% | 96.7% | 96.7% | 103% | 102% | 102% | 98.1% | 101% | 99.1% | 104% | 96.4% | 105% | 96.5% | > 10 µM | > 10 µM | > 10 µM | > 10 µM | > 10 µM | 0 | 0 | 0 | 0 | 0
N[C@@H](CCNCc1ccc(Cl)cc1)C(=O)N1CCCCC1 | 108% | 98.1% | 101% | 101% | 93.2% | 95.9% | 94.3% | 101% | 96.6% | 98.4% | 101% | 109% | 102% | 112% | 95.9% | 94.1% | 99.3% | 91% | 100% | 103% | 98.9% | 99% | 104% | 99.5% | 101% | > 10 µM | > 10 µM | > 10 µM | > 10 µM | > 10 µM | 0 | 0 | 0 | 0 | 0
COC(=O)C1=CO[C@@H](O)[C@@H]2C(CO)=CC[C@H]12 [genipin] | 88% | 92.8% | 83.6% | 85.1% | 87% | 91.6% | 96.1% | 102% | 96.8% | 88.5% | 87.6% | 105% | 103% | 106% | 113% | 90.1% | 101% | 95.7% | 99.5% | 106% | 93.8% | 94.3% | 99.7% | 92.8% | 100% | > 10 µM | > 10 µM | > 10 µM | > 10 µM | > 10 µM | 2.4 | 0.1 | 0 | 0 | 0
COC(=O)C(c1ccccc1)C1CCCCN1 (stereo not given) [METHYLPHENIDATE HYDROCHLORIDE] | 100% | 102% | 91.1% | 105% | 101% | 97% | 99.5% | 91.2% | 103% | 104% | 108% | 95.2% | 91.4% | 102% | 99% | 99.7% | 97.3% | 98.5% | 98.9% | 102% | 96.5% | 102% | 92.1% | 95.3% | 98.6% | > 10 µM | > 10 µM | > 10 µM | > 10 µM | > 10 µM | 0 | 0 | 0 | 0 | 0
C[N+]1(C)[C@@H]2C[C@@H](OC(=O)C(O)(c3cccs3)c3cccs3)C[C@H]1[C@@H]1O[C@@H]12 [tiotropium] | 102% | 98.7% | 96.4% | 95.2% | 108% | 105% | 100% | 101% | 99.5% | 104% | 102% | 93.9% | 98.8% | 99.4% | 104% | 103% | 98.6% | 101% | 95.9% | 102% | 93.4% | 94% | 95.3% | 96.8% | 108% | > 10 µM | > 10 µM | > 10 µM | > 10 µM | > 10 µM | 0 | 0 | 0 | 0 | 0

From the supplement of paper PMC13380429
